Laboratory results reported in patent US12306194B2, “Reagent for fluorescence imaging of lipid droplets in cell and tissue” (NATIONAL UNIVERSITY CORPORATION GUNMA UNIVERSITY, priority 2019, dated 2025).

How the values were obtained:
[1] = tested on: lipid droplets in the liver; assay: Fluorescence intensity and lifetime imaging of liver lipid droplets in normal and fatty-liver model mice; format: in vivo, mice (C57BL/6J)
Method: Fluorescence imaging of lipid droplets in a body tissue, and of an adipose tissue, using PC6S is described below. […] Therefore, PC6S cannot be administered to mice. In view of this, 5 mM stock solution was added (at 10% in terms of the volume ratio) to physiological saline supplemented with 10% bovine serum albumin. […] Regarding administration of MNs-NB, a stock solution in DMSO is directly administered to mice. Since administration of DMSO may cause death of mice from shock, the administration method in the present invention is thought to be a safer method. Here, 100 to 200 μL of 500 μM solution (50 to 100 nmol) was administered to the tail vein of a mouse under anesthesia, and a fluorescence imaging experiment was carried out using a confocal laser microscope (excitation wavelength, 488 nm; monitoring wavelength, 510 to 560 nm). In the present experiment, a microscope capable of acquiring fluorescence lifetime images as well as fluorescence intensity images (FLIM: fluorescence lifetime imaging microscope) (Simple-Tau-150-DX; Becker & Hickl) was used. The animal experiment was carried out in accordance with the animal experiment safety regulations in Gunma University.
Fatty-liver model mice are known to have a liver containing a larger amount of lipid droplets accumulated therein compared to normal mice. Here, fatty-liver model mice were prepared by feeding mice (C57BL/6J) with an ultra-high-fat, choline-deficient, methionine-reduced diet for 2 weeks or 10 weeks. […] Furthermore, in the mouse fed with the fatty diet for 10 weeks, intense fluorescence was found from structures having shapes different from those of lipid droplets, in addition to the fluorescence from lipid droplets. This is thought to be autofluorescence due to infiltration of macrophage-derived cells caused by liver fibrosis.

HeLa cells = assay: Cytotoxicity with cell growth-cytotoxicity measurement kit CCK-8; format: cell-based; conditions: 0.1, 0.5, 1, 10, 20, 40 or 50 μM, 24 hours
Method: Further, HeLa cells were plated on a 96-well plate, and allowed to adhere to a glass surface. Thereafter, PC6S was added to the medium (to a final concentration of 0.1, 0.5, 1, 10, 20, 40, or 50 μM), and culture was performed for 24 hours. After washing, cytotoxicity was evaluated using a cell growth-cytotoxicity measurement kit CCK-8. Two hours after the addition of the reagent, the absorbance was measured.

[2] = tested on: lipid droplets in HeLa cells; assay: Multicolor imaging and time-course imaging of lipid droplet formation in HeLa cells; format: cell-based
Method: Further, HeLa cells were cultured for 30 minutes in a medium to which PC6S was added to a final concentration of 100 nM, and PC6S unincorporated in the cells was removed, followed by acquiring a fluorescence imaging image (Hour 0) using an inverted fluorescence microscope in the same manner as in Example 2. The cells were cultured in the presence of 400 μM oleic acid for 24 hours, and their fluorescence imaging images were acquired 4, 8, 12, and 24 hours later.

CCN(CC)c1ccc2cc3cc(-c4nc5ccccc5s4)c(=O)oc3cc2c1 [PC6S, 3-(Benzo[d]thiazol-2-yl)-8-(diethylamino)-2H-benzo[g]chromen-2-one]
lipid droplet imaging of liver surface ([1]; 100 nmol, tail vein, fatty-liver model mouse (Week 2)): large lipid droplets were imaged over the entire liver surface
lipid droplet imaging of liver surface ([1]; 100 nmol, tail vein, mouse fed with a normal diet): small lipid droplets could be found in hepatocytes
fluorescence lifetime imaging of liver surface ([1]; 100 nmol, tail vein, mouse fed with the fatty diet for 10 weeks): capable of distinguishing between the autofluorescence (blue) and the PC6S fluorescence (orange)
Imaging of lipid dropletts in a tissue ([1]; summary grade, Table 3): ⊚
cytotoxicity (HeLa cells): no remarkable cytotoxicity was found at any concentration
imaging of lipid droplet formation over time ([2]; 100 nM, then 400 μM oleic acid, 4, 8, 12 and 24 hours): the process of gradual formation of lipid droplets could be imaged over time
multicolor imaging ([2]; combined use with Hoechst 33342 and Mito tracker red): multicolor imaging was possible
